Measurements as given in the supplement of paper PMC10307832.

How the values were obtained:
Assay in all cases: relative viability (nuclei count vs DMSO), 5 days (fraction); higher = more cells survive
[1] = compound: COc1cc2c(Oc3ccc4[nH]c(C)cc4c3F)ncnc2cc1OCCCN1CCCC1 [Cediranib] + Cc1cc(Nc2cc(N3CCN(C)CC3)nc(Sc3ccc(NC(=O)C4CC4)cc3)n2)n[nH]1 [Tozasertib] (partner 0.1 µM)
How it was run: (§1)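 Values are medians from duplicate plates. Each reflects relative viability, defined as the nuclei count of treated wells over that of vehicle wells. Lung cancer cell lines in 1536-well plates were pin-tool dosed one day after seeding with one drug alone or with a fixed anchor-drug dose plus five library-drug doses (not always all listed) in √10 steps, then fixed, stained and imaged at 4× after 5 days.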

[2] = compound: O=C(C[C@H]1NCCC[C@@H]1O)Cn1cnc2cc(Br)c(Cl)cc2c1=O (racemic) [Halofuginone] + N=C(N)NC(=N)NCCc1ccccc1 [Phenformin] (partner 250 µM)
How it was run: as §1

[3] = compound: Nc1ncn([C@H]2C[C@H](O)[C@@H](CO)O2)c(=O)n1 [Decitabine] + CCNC(=O)c1noc(-c2cc(C(C)C)c(O)cc2O)c1-c1ccc(CN2CCOCC2)cc1 [Luminespib] (partner 0.01 µM)
How it was run: as §1

[4] = compound: O=C(C[C@H]1NCCC[C@@H]1O)Cn1cnc2cc(Br)c(Cl)cc2c1=O (racemic) [Halofuginone] + CS(=O)(=O)CCNCc1ccc(-c2ccc3ncnc(Nc4ccc(OCc5cccc(F)c5)c(Cl)c4)c3c2)o1 [Lapatinib] (partner 2 µM)
How it was run: as §1

Cell Line | relative viability ([1]; first compound 0.04 µM) | relative viability ([1]; first compound 0.1265 µM) | relative viability ([1]; first compound 0.4 µM) | relative viability ([1]; first compound 1.265 µM) | relative viability ([1]; first compound 4 µM) | relative viability ([2]; first compound 0.001 µM) | relative viability ([2]; first compound 0.003162 µM) | relative viability ([2]; first compound 0.01 µM) | relative viability ([2]; first compound 0.03162 µM) | relative viability ([2]; first compound 0.1 µM) | relative viability ([3]; first compound 0.04 µM) | relative viability ([3]; first compound 0.1265 µM) | relative viability ([3]; first compound 0.4 µM) | relative viability ([3]; first compound 1.265 µM) | relative viability ([3]; first compound 4 µM) | relative viability ([4]; first compound 0.001 µM) | relative viability ([4]; first compound 0.003162 µM) | relative viability ([4]; first compound 0.01 µM) | relative viability ([4]; first compound 0.03162 µM) | relative viability ([4]; first compound 0.1 µM)
LCLC-103H | 0.501 | 0.505 | 0.467 | 0.469 | 0.5 | 0.35 | 0.341 | 0.323 | 0.326 | 0.309 | 0.863 | 0.829 | 0.685 | 0.594 | 0.472 |  |  |  |  | 
NCI-H441 | 0.787 |  | 0.545 | 0.55 | 0.677 | 0.976 | 1.05 | 0.87 | 0.839 | 0.564 | 0.271 | 0.371 | 0.337 | 0.293 | 0.256 |  |  |  |  | 
NCI-H522 | 0.687 | 0.465 | 0.541 | 0.535 | 0.51 | 0.73 | 0.653 | 0.649 | 0.648 | 0.657 | 1.07 | 0.919 | 0.923 | 0.652 | 0.684 |  |  |  |  | 
NCI-H1299 |  |  |  |  |  |  |  |  |  |  |  |  |  |  |  | 0.995 | 1 | 0.916 | 0.941 | 0.65
NCI-H1563 |  |  |  |  |  | 0.659 | 0.638 | 0.615 | 0.602 | 0.549 | 0.564 | 0.508 | 0.428 | 0.545 | 0.495 | 0.757 | 0.853 | 0.879 | 0.627 | 0.506
NCI-H1623 | 0.453 |  | 0.427 | 0.469 | 0.43 | 0.624 | 0.548 | 0.59 | 0.576 | 0.432 | 0.51 | 0.475 | 0.504 | 0.427 | 0.434 |  |  |  |  | 
NCI-H1648 | 0.55 |  | 0.449 | 0.502 | 0.442 |  |  |  |  |  |  |  |  |  |  |  |  |  |  | 
NCI-H1703 |  |  |  |  |  |  |  |  |  |  |  |  |  |  |  | 1.15 | 1.28 | 0.95 | 0.792 | 0.427
NCI-H1792 |  |  |  |  |  | 0.233 | 0.29 | 0.256 | 0.223 | 0.184 | 0.565 | 0.446 | 0.465 | 0.428 | 0.311 | 0.897 | 0.857 | 0.896 | 0.831 | 0.994
NCI-H2342 | 0.54 | 0.575 | 0.568 | 0.536 | 0.484 | 0.719 | 0.566 | 0.561 | 0.688 | 0.547 | 0.765 | 0.737 | 0.804 | 0.537 | 0.434 |  |  |  |  | 
SW 900 | 0.605 | 0.507 | 0.584 | 0.48 | 0.571 | 0.657 | 0.565 | 0.695 | 0.712 | 0.4 | 0.212 | 0.164 | 0.169 | 0.179 | 0.197 |  |  |  |  | 
